According to patent publication US20200261391A1, “METHODS OF REDUCING THE RISK OF A CARDIOVASCULAR EVENT IN A STATIN-TREATED SUBJECT BY INCREASING SERUM AND PLASMA EPA AND DPA LEVELS” (Amarin Pharmaceuticals Ireland Limited, priority 2019, published 2020):

System: patients with elevated triglyceride levels on statin therapy
Assay: REDUCE-IT trial: safety (treatment-emergent adverse events, bleeding, atrial fibrillation/flutter)
[1] = TEAE by preferred term, Safety population, N = 4089
[2] = gastrointestinal TEAEs, Safety population, N = 4089
[3] = serious bleeding TEAE by preferred term, N = 4089
[4] = serious bleeding TEAE, Safety population, N = 4089

Method: Specification of Variables and Procedures: Safety assessments included adverse events, clinical laboratory measurements (chemistry, hematology), 12-lead ECGs, vital signs (systolic and diastolic blood pressure, heart rate, respiratory rate, and body temperature), weight, waist circumference, and physical examinations as per Study Procedures in Table 1. […] All laboratory test results were evaluated by the investigator as to their clinical significance. Any observations at physical examinations or laboratory values considered by the investigator to be clinically significant were considered an adverse event.
An adverse event can therefore be any unfavorable and/or unintended sign (including an abnormal laboratory finding), symptom, or disease temporally associated with the use of an investigational medication product, whether or not related to the investigational medication product. All adverse events, including observed or volunteered problems, complaints, or symptoms, were recorded on the appropriate CRF. Each adverse event was evaluated for duration, intensity, and causal relationship with the study medication or other factors.
Serious Adverse Events: A serious adverse event (SAE) is defined as an adverse event that meets any of the following criteria: • Results in death; • Is life-threatening—The term “life-threatening” in the definition of “serious” refers to an event in which the patient was at risk of death at the time of the event. […] Important medical events that may not result in death, be life threatening, or require hospitalization were considered an SAE when, based upon appropriate medical judgment, they may have jeopardized the patient and may have required medical or surgical intervention to prevent one of the outcomes listed above.
Adverse Events of Special Interest: Bleeding-related adverse events, glucose control (fasting blood glucose and HbA1c), and indicators of hepatic disorders (e.g., ALT or AST increases >3×ULN, total bilirubin increases of ≥2×ULN) were summarized separately and compared between treatment groups.
Analysis of Safety: All analyses of safety were conducted on the safety population, which was defined as all randomized patients. The safety assessment was based on the frequency of adverse events, physical exams, vital signs and safety laboratory tests. AEs with new onset during the study between the initiation of study drug and 30 days after the last dose of study drug for each patient was considered treatment-emergent (TEAEs). This included any AE with onset prior to initiation of study drug and increased severity after the treatment initiation.
This included overall incidence rates (regardless of severity and relationship to study drug), and incidence rates for moderate or severe adverse events. A summary of SAEs and adverse events leading to early discontinuation (for ≥30 days) were presented through data listings. Patients who restarted study drug were included in the summary of AEs leading to discontinuation. Safety laboratory tests and vital signs were summarized by post-treatment change from baseline for each of the parameters using descriptive statistics by treatment group. Those patients with significant laboratory abnormalities were identified in data listings. Additional safety parameters were summarized in data listings.

CC/C=C\C/C=C\C/C=C\C/C=C\C/C=C\CCCC(=O)OCC [icosapent ethyl, eicosapentaenoic acid ethyl ester]
Pneumonia, number of patients with serious treatment-emergent adverse event (N = 4089): 105
Pneumonia, patients with serious treatment-emergent adverse event (N = 4089): 2.6%
Serious TEAE Leading to Death, % of patients (Safety population, N = 4089): (2.3%)
Serious TEAE Leading to Death, number of patients (Safety population, N = 4089): 94
Serious TEAE Leading to Withdrawal of Study Drug, % of patients (Safety population, N = 4089): (2.2%)
Serious TEAE Leading to Withdrawal of Study Drug, number of patients (Safety population, N = 4089): 88
Serious TEAE, % of patients (Safety population, N = 4089): (30.6%)
Serious TEAE, number of patients (Safety population, N = 4089): 1252
Subjects with at Least One TEAE, % of patients (Safety population, N = 4089): (81.8%)
Subjects with at Least One TEAE, number of patients (Safety population, N = 4089): 3343
TEAE Leading to Withdrawal of Study Drug, % of patients (Safety population, N = 4089): (7.9%)
TEAE Leading to Withdrawal of Study Drug, number of patients (Safety population, N = 4089): 321
Anemia, % of patients [1]: 4.7%
Anemia, number of patients [1]: 191
Angina pectoris, % of patients [1]: 4.9%
Angina pectoris, number of patients [1]: 200
Arthralgia, % of patients [1]: 7.7%
Arthralgia, number of patients [1]: 313
Atrial fibrillation, % of patients [1]: 5.3%
Atrial fibrillation, number of patients [1]: 215
Back pain, % of patients [1]: 8.2%
Back pain, number of patients [1]: 335
Bronchitis, % of patients [1]: 7.5%
Bronchitis, number of patients [1]: 306
Cataract, % of patients [1]: 5.7%
Cataract, number of patients [1]: 233
Chest pain, % of patients [1]: 6.7%
Chest pain, number of patients [1]: 273
Constipation, % of patients [1]: 5.4%
Constipation, number of patients [1]: 221
Cough, % of patients [1]: 5.9%
Cough, number of patients [1]: 241
Diarrhea, % of patients [1]: 9.0%
Diarrhea, number of patients [1]: 367
Dizziness, % of patients [1]: 5.7%
Dizziness, number of patients [1]: 235
Dyspnea, % of patients [1]: 6.2%
Dyspnea, number of patients [1]: 254
Fatigue, % of patients [1]: 5.6%
Fatigue, number of patients [1]: 228
Hypertension, % of patients [1]: 7.8%
Hypertension, number of patients [1]: 320
Influenza, % of patients [1]: 6.4%
Influenza, number of patients [1]: 263
Nasopharyngitis, % of patients [1]: 7.7%
Nasopharyngitis, number of patients [1]: 314
Osteoarthritis, % of patients [1]: 5.9%
Osteoarthritis, number of patients [1]: 241
Pain in extremity, % of patients [1]: 5.7%
Pain in extremity, number of patients [1]: 235
Peripheral edema, % of patients [1]: 6.5%
Peripheral edema, number of patients [1]: 267
Pneumonia, % of patients [1]: 6.4%
Pneumonia, number of patients [1]: 263
Upper respiratory tract infection, % of patients [1]: 7.6%
Upper respiratory tract infection, number of patients [1]: 312
Urinary tract infection, % of patients [1]: 6.2%
Urinary tract infection, number of patients [1]: 253
Gastroesophageal Reflux Disease, % of patients [2]: 3.0%
Gastroesophageal Reflux Disease, number of patients [2]: 124
Gastrointestinal disorders (primary system organ class), % of patients [2]: 33.0%
Gastrointestinal disorders (primary system organ class), number of patients [2]: 1350
Nausea, % of patients [2]: 4.6%
Nausea, number of patients [2]: 190
anemia, adverse event rate (in vivo): 4.7%
atrial fibrillation or flutter requiring hospitalization (adjudicated tertiary endpoint), rate (in vivo): 3.1%
atrial fibrillation, adverse event rate (in vivo): 5.3%
diarrhea, adverse event rate (in vivo): 9%
gastrointestinal adverse events, rate (in vivo): 33.0%
gastrointestinal bleeding (serious), rate (in vivo): 1.5%
new or unexpected important adverse effects in the safety population (in vivo): no new or unexpected important adverse effects
overall adverse event rates compared with placebo (in vivo): similar
peripheral edema, adverse event rate (in vivo): 6.5%
serious central nervous system bleeding, rate (in vivo): 0.3%
tolerability (in vivo): well tolerated
treatment-emergent serious adverse events for bleeding, rate (in vivo): 2.7%
rates of adverse events or serious adverse events leading to withdrawal of study drug vs placebo (in vivo, listed as AMR101): no significant differences
Aortic Aneurysm Rupture, % of patients [3]: (0.0%)
Aortic Aneurysm Rupture, number of patients [3]: 1
Brain Contusion, % of patients [3]: (0.0%)
Brain Contusion, number of patients [3]: 0
Catheter Site Hemorrhage, % of patients [3]: (0.0%)
Catheter Site Hemorrhage, number of patients [3]: 0
Cerebral Hemorrhage, % of patients [3]: (0.0%)
Cerebral Hemorrhage, number of patients [3]: 0
Cystitis Hemorrhagic, % of patients [3]: (0.0%)
Cystitis Hemorrhagic, number of patients [3]: 2
Diverticulitis Intestinal Hemorrhagic, % of patients [3]: (0.0%)
Diverticulitis Intestinal Hemorrhagic, number of patients [3]: 0
Diverticulum Intestinal Hemorrhagic, % of patients [3]: (0.1%)
Diverticulum Intestinal Hemorrhagic, number of patients [3]: 3
Duodenal Ulcer Hemorrhage, % of patients [3]: (0.0%)
Duodenal Ulcer Hemorrhage, number of patients [3]: 2
Ecchymosis, % of patients [3]: (0.0%)
Ecchymosis, number of patients [3]: 1
Epistaxis, % of patients [3]: (0.2%)
Epistaxis, number of patients [3]: 7
Esophageal Hemorrhage, % of patients [3]: (0.0%)
Esophageal Hemorrhage, number of patients [3]: 0
Extravasation Blood, % of patients [3]: (0.0%)
Extravasation Blood, number of patients [3]: 1
Gastric Hemorrhage, % of patients [3]: (0.0%)
Gastric Hemorrhage, number of patients [3]: 1
Gastric Ulcer Hemorrhage, % of patients [3]: (0.1%)
Gastric Ulcer Hemorrhage, number of patients [3]: 3
Gastrointestinal Angiodysplasia Hemorrhagic, % of patients [3]: (0.0%)
Gastrointestinal Angiodysplasia Hemorrhagic, number of patients [3]: 1
Gastrointestinal Hemorrhage, % of patients [3]: (0.6%)
Gastrointestinal Hemorrhage, number of patients [3]: 26
Genital Hemorrhage, % of patients [3]: (0.0%)
Genital Hemorrhage, number of patients [3]: 1
Hemarthrosis, % of patients [3]: (0.0%)
Hemarthrosis, number of patients [3]: 0
Hematemesis, % of patients [3]: (0.1%)
Hematemesis, number of patients [3]: 3
Hematochezia, % of patients [3]: (0.0%)
Hematochezia, number of patients [3]: 1
Hematoma, % of patients [3]: (0.0%)
Hematoma, number of patients [3]: 1
Hematuria, % of patients [3]: (0.2%)
Hematuria, number of patients [3]: 8
Hemoptysis, % of patients [3]: (0.0%)
Hemoptysis, number of patients [3]: 1
Hemorrhagic Anemia, % of patients [3]: (0.1%)
Hemorrhagic Anemia, number of patients [3]: 4
Hemorrhagic Duodenitis, % of patients [3]: (0.0%)
Hemorrhagic Duodenitis, number of patients [3]: 0
Hemorrhagic Transformation Stroke, % of patients [3]: (0.0%)
Hemorrhagic Transformation Stroke, number of patients [3]: 1
Hemorrhoidal Hemorrhage, % of patients [3]: (0.1%)
Hemorrhoidal Hemorrhage, number of patients [3]: 3
Hemothorax, % of patients [3]: (0.0%)
Hemothorax, number of patients [3]: 1
Immune Thrombocytopenic Purpura, % of patients [3]: (0.0%)
Immune Thrombocytopenic Purpura, number of patients [3]: 0
Intra-Abdominal Hemorrhage, % of patients [3]: (0.0%)
Intra-Abdominal Hemorrhage, number of patients [3]: 1
Intracranial Hemorrhage, % of patients [3]: (0.0%)
Intracranial Hemorrhage, number of patients [3]: 0
Large Intestinal Hemorrhage, % of patients [3]: (0.0%)
Large Intestinal Hemorrhage, number of patients [3]: 1
Lower Gastrointestinal Hemorrhage, % of patients [3]: (0.1%)
Lower Gastrointestinal Hemorrhage, number of patients [3]: 5
Mallory-Weiss Syndrome, % of patients [3]: (0.0%)
Mallory-Weiss Syndrome, number of patients [3]: 1
Melaena, % of patients [3]: (0.1%)
Melaena, number of patients [3]: 3
Menorrhagia, % of patients [3]: (0.0%)
Menorrhagia, number of patients [3]: 1
Mouth Hemorrhage, % of patients [3]: (0.0%)
Mouth Hemorrhage, number of patients [3]: 0
Pancreatitis Hemorrhagic, % of patients [3]: (0.0%)
Pancreatitis Hemorrhagic, number of patients [3]: 1
Peptic Ulcer Hemorrhage, % of patients [3]: (0.0%)
Peptic Ulcer Hemorrhage, number of patients [3]: 1
Pericardial Hemorrhage, % of patients [3]: (0.0%)
Pericardial Hemorrhage, number of patients [3]: 0
Post Procedural Hematoma, % of patients [3]: (0.0%)
Post Procedural Hematoma, number of patients [3]: 1
Post Procedural Hematuria, % of patients [3]: (0.0%)
Post Procedural Hematuria, number of patients [3]: 0
Post Procedural Hemorrhage, % of patients [3]: (0.1%)
Post Procedural Hemorrhage, number of patients [3]: 5
Rectal Hemorrhage, % of patients [3]: (0.2%)
Rectal Hemorrhage, number of patients [3]: 10
Renal Hemorrhage, % of patients [3]: (0.0%)
Renal Hemorrhage, number of patients [3]: 0
Retinal Hemorrhage, % of patients [3]: (0.0%)
Retinal Hemorrhage, number of patients [3]: 1
Retroperitoneal Hematoma, % of patients [3]: (0.0%)
Retroperitoneal Hematoma, number of patients [3]: 0
Retroperitoneal Hemorrhage, % of patients [3]: (0.0%)
Retroperitoneal Hemorrhage, number of patients [3]: 1
Shock Hemorrhagic, % of patients [3]: (0.0%)
Shock Hemorrhagic, number of patients [3]: 2
Subarachnoid Hemorrhage, % of patients [3]: (0.0%)
Subarachnoid Hemorrhage, number of patients [3]: 2
Subdural Hematoma, % of patients [3]: (0.2%)
Subdural Hematoma, number of patients [3]: 9
Subdural Hemorrhage, % of patients [3]: (0.0%)
Subdural Hemorrhage, number of patients [3]: 2
Traumatic Hematoma, % of patients [3]: (0.0%)
Traumatic Hematoma, number of patients [3]: 2
Traumatic Intracranial Hemorrhage, % of patients [3]: (0.0%)
Traumatic Intracranial Hemorrhage, number of patients [3]: 0
Ulcer Hemorrhage, % of patients [3]: (0.0%)
Ulcer Hemorrhage, number of patients [3]: 1
Upper Gastrointestinal Hemorrhage, % of patients [3]: (0.1%)
Upper Gastrointestinal Hemorrhage, number of patients [3]: 3
Urinary Bladder Hemorrhage, % of patients [3]: (0.0%)
Urinary Bladder Hemorrhage, number of patients [3]: 1
Bleeding related disorders, % of patients [4]: (2.7%)
Bleeding related disorders, number of patients [4]: 111
Central nervous system bleeding, % of patients [4]: (0.3%)
Central nervous system bleeding, number of patients [4]: 14
Gastrointestinal bleeding, % of patients [4]: (1.5%)
Gastrointestinal bleeding, number of patients [4]: 62
Other bleeding, % of patients [4]: (1.0%)
Other bleeding, number of patients [4]: 41
